From US10874670B2, “Substituted fused heteroaromatic compounds as kinase inhibitors and the use thereof” (IMPACT THERAPEUTICS, INC., priority 2017, dated 2020)

Columns and labels:
[1] = tested on: human colon cancer cell SW620; assay: MTT assay, growth of SW620 cells, compounds combined with CPT-11; type: cell-based; settings: combined with CPT-11 (205 nM medium), 5 days, MTT
Protocol: Inhibitory effects of N,N-dimethyl-3-(4-(1-(tetrahydro-2H-pyran-4-yl)-[1,2,4]triazolo[4,3-a]quinoxalin-8-yl)phenoxy)propan-1-amine and its Analogues Combined with CPT-11 on the Growth of Human Colon Cancer Cell SW620 were Determined by MTT Assay
SW620 cells were digested by trypsinase, centrifuged at 800 rpm for 5 minutes, the supernatant was discarded, resuspended with fresh medium (RPMI 1640 medium+10% FBS) and counted. The cells were seeded into 96-well cell culture plate with appropriate cell density and incubated overnight in a 37° C. 5% CO2 incubator. The stock solutions of the tested compound and the reference compound AZD0156 were serially diluted to 8 concentrations by DMSO at the ratios of 1:3 and 1:10, respectively, the first concentration was 10 μM or 1 μM, and the last concentration was negative control of DMSO (0 μM, the final concentration of DMSO was 1%). 5 μL of each concentration was added to 120 μL of medium (25 times diluted) and mixed by shaking. The overnight cells were taken and the culture medium was removed, 195 μL of fresh medium containing 205 nM CPT-11 was added to each well, and 5 μL of diluted medium containing the corresponding concentration of the tested sample was added respectively, and the culture plate was then placed in the 5% CO2 cell culture incubator at 37° C. for 5 days. After removing the original solution, 100 pt of fresh serum-free DMEM medium containing MTT (0.5 mg/mL) was added to each well, the culture was continued. After 4 hours, the original solution was removed, 100 μL of DMSO was added into each well, the 96-well plates were shaken away from light for 10 minutes and placed in a multi-function reader to read the absorbance at the wavelength of 552/630/690 nm. GraphPad Prism 6.0 was used to analyze the data. The inhibitory activity of compounds on cell proliferation was plotted based on cell viability and compound concentration. The IC50 value was fitted by a sigmoidal dose response curve equation Y=100/(1+10^(Log C−Log IC50)), where C was the concentration of compound.
Table 3 summarizes the inhibitory effects of compounds combined with CPT-11 on the growth of human colon cancer cell SW620 (IC50).

[2] = biological target: ATM enzyme (human) (Homo sapiens, UniProt Q13315); assay: ATM kinase assay (HTRF, GST-cMyc-p53 substrate); type: biochemical; settings: for inhibition at 0.01 µM / inhibition at 0.1 µM / inhibition at 1 µM: 0.5 h, read-out: Inh (%) of ATM kinase
Sequence of ATM enzyme (human) (Q13315 whole entry): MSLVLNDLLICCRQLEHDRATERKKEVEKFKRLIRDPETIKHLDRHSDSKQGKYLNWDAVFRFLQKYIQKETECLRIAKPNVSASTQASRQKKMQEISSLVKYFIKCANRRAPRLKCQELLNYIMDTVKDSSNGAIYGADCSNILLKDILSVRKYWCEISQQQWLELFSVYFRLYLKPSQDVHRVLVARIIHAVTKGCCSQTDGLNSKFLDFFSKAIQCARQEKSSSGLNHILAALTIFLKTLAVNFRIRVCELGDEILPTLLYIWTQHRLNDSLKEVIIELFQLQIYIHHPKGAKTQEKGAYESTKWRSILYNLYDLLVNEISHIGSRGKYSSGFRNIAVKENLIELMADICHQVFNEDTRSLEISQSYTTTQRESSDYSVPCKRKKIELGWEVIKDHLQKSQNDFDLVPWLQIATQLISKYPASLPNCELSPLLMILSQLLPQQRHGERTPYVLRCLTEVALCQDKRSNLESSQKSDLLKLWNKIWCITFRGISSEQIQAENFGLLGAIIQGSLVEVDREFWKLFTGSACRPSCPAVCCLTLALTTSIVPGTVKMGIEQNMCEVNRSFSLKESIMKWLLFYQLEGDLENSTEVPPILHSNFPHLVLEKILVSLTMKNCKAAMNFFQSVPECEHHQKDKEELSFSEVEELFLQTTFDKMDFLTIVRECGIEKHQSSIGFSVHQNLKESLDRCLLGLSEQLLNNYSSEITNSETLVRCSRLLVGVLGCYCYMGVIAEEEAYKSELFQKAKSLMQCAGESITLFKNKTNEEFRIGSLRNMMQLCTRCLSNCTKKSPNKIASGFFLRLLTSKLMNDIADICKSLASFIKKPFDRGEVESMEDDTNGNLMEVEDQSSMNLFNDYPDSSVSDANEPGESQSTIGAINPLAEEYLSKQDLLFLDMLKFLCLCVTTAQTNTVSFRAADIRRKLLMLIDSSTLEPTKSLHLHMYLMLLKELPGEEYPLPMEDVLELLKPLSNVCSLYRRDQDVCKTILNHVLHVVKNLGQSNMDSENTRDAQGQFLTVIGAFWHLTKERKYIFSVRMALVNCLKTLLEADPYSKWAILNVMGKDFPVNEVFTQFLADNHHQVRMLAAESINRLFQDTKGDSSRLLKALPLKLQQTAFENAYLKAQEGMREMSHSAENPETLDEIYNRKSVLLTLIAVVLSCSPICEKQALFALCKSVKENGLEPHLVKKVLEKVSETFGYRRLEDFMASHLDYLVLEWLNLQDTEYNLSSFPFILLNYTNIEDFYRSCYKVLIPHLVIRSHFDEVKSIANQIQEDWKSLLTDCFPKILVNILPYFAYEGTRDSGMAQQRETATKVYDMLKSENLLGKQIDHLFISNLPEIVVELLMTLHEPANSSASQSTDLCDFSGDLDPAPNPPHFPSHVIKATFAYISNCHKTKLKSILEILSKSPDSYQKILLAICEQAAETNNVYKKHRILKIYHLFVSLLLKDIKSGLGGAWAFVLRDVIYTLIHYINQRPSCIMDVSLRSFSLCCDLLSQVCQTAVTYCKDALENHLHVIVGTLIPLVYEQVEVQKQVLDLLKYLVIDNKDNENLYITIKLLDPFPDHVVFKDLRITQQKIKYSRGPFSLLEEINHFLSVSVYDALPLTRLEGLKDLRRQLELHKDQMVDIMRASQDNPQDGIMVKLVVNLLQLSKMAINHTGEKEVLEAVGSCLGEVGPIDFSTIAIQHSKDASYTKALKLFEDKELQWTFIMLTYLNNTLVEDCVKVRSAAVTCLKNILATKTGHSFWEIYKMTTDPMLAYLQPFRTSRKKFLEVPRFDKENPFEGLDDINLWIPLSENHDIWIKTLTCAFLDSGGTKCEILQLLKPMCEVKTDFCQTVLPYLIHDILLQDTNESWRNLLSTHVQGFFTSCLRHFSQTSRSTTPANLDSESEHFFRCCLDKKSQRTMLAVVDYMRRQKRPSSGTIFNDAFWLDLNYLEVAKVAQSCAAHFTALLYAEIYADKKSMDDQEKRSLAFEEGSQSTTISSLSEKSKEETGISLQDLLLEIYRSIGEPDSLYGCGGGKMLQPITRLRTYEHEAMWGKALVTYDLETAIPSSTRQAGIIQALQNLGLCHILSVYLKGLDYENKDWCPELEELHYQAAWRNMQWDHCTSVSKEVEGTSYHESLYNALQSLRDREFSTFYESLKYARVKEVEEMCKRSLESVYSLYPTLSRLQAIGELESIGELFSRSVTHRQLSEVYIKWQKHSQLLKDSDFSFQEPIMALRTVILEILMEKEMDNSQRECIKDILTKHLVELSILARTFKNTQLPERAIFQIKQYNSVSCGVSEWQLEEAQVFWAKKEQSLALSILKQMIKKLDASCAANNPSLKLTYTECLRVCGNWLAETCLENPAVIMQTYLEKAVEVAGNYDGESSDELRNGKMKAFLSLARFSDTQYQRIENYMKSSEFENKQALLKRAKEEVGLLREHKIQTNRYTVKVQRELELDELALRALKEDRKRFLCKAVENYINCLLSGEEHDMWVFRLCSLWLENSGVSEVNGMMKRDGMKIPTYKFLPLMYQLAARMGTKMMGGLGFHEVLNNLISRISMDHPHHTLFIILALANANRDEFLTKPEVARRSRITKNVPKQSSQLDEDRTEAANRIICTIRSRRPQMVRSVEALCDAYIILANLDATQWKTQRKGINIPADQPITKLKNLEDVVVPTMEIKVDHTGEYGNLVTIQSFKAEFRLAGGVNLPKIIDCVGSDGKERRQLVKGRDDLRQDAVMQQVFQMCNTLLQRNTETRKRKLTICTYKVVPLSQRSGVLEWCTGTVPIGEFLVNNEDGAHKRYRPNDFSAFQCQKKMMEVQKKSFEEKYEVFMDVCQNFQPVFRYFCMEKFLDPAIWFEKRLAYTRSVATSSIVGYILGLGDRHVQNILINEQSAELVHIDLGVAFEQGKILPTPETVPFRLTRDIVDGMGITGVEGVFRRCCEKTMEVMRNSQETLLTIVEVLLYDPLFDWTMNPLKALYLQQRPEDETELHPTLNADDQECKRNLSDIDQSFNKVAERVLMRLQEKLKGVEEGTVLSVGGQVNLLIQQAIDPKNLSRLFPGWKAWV
Protocol: In Vitro Inhibition of ATM by N,N-dimethyl-3-(4-(1-(tetrahydro-2H-pyran-4-yl)-[1,2,4]triazolo[4,3-a]quinoxalin-8-yl)phenoxy)propan-1-amine and its Analogues was Determined by ATM Kinase Assay
The reaction was initiated by the addition of a Mg/ATP mixture and incubation for 30 minutes at room temperature, the reaction was quenched by the addition of a stop solution containing EDTA. Finally, the detection buffer containing the d2-labeled anti-GST monoclonal antibody and the europium-labeled anti-phospho p53 (Ser15) antibody was added. The plate was then read in time resolved fluorescence mode and the homogeneous time resolved fluorescence (HTRF) signal was determined according to the equation: HTRF=10000×(Em665nm/Em620nm). Each compound sample was repeated in duplicate. The experiment negative control was all components except of the ATM enzyme and the positive control contained all components. All reactions were quenched by adding EDTA.
ATM kinase inhibition was detected by using the method described above. The curve equation for calculating IC50 value is as follows:
[formula] • wherein, C is the concentration of compound and D is the slope factor.

[3] = C 0.01 μm (final concentration of compound)
[4] = C 0.1 μm (final concentration of compound)
[5] = C 1 μm (final concentration of compound)

IC50 ([1]; Homo sapiens, SW-620, 120 h) [nM]	inhibition at 1 µM [2, 5] [%]	SMILES	also measured
485	98	CN(C)C1CCN(c2ccc(-c3ccc4ncc5nnc(C6CCOCC6)n5c4c3)cn2)CC1 [Example 15, N,N-dimethyl-1-(5-(1-(tetrahydro-2H-pyran-4-yl)-[1,2,4]triazolo[4,3-a]quinoxalin-8-yl)pyridin-2-yl)piperidin-4-amine]	inhibition at 0.01 µM [2, 3]: 33%; inhibition at 0.1 µM [2, 4]: 80%
3100	40	CN(C)CCCOc1cnc(-c2ccc3ncc4nnc(C5CCOCC5)n4c3c2)nc1 [Example 7, N,N-dimethyl-3-((2-(1-(tetrahydro-2H-pyran-4-yl)-[1,2,4]triazolo[4,3-a]quinoxalin-8-yl)pyrimidin-5-yl)oxy)propan-1-amine]	
3300	38	CN(C)CCCOc1cnc(-c2ccc3ncc4nnc(C5CCOCC5)n4c3c2)cn1 [Example 8, N,N-dimethyl-3-((5-(1-(tetrahydro-2H-pyran-4-yl)-[1,2,4]triazolo[4,3-a]quinoxalin-8-yl)pyrazin-2-yl)oxy)propan-1-amine]	
13		CNC1CCN(c2ccc(-c3ccc4ncc5nnc(N6C[C@@H](C)N(C)[C@@H](C)C6)n5c4c3)cc2F)CC1 [Example 94, N-methyl-1-(2-fluoro-4-(1-((3S,5R)-3,4,5-trimethylpiperazin-1-yl)-[1,2,4]triazolo[4,3-a]quinoxalin-8-yl)phenyl)piperidin-4-amine]	
		C[N+](C)(C)CCCNc1ccc(-c2ccc3ncc4nnc(C5CCOCC5)n4c3c2)cc1 [Example 40, N,N,N-trimethyl-3-((4-(1-(tetrahydro-2H-pyran-4-yl)-[1,2,4]triazolo[4,3-a]quinoxalin-8-yl)phenyl)amino)propan-1-aminium]	IC50 [1]: > 100000 nM; Inh (%) of ATM kinase [2, 3]: 33%; Inh (%) of ATM kinase [2, 4]: 81%; Inh (%) of ATM kinase [2, 5]: 99%
> 100000	57	CN(C)CCCOc1ccc(-c2cnc3ncc4nnc(C5CCOCC5)n4c3c2)cc1 [Example 2, N,N-dimethyl-3-(4-(1-(tetrahydro-2H-pyran-4-yl)pyrido[2,3-e][1,2,4]triazolo[4,3-a]pyrazin-8-yl)phenoxy)propan-1-amine]	
664	98	CN(C)C1CCN(c2ccc(-c3ccc4ncc5nnc(CN6CCOCC6)n5c4n3)cc2)CC1 [Example 78, N,N-dimethyl-1-(4-(9-(morpholinomethyl)pyrido[3,2-e][1,2,4]triazolo[4,3-a]pyrazin-2-yl)phenyl)piperidin-4-amine]	inhibition at 0.01 µM [2, 3]: 67%; inhibition at 0.1 µM [2, 4]: 94%
1980	94	CN(C)CCCOc1ccc(-c2ccc3ncc4nnc(CN5CCOCC5)n4c3n2)cc1 [Example 79, N,N-dimethyl-3-(4-(9-(morpholinomethyl)pyrido[3,2-e][1,2,4]triazolo[4,3-a]pyrazin-2-yl)phenoxy)propan-1-amine]	inhibition at 0.01 µM [2, 3]: 21%; inhibition at 0.1 µM [2, 4]: 62%
5210	85	CN(C)CCCNc1ccc(-c2ccc3ncc4nnc(C5CCOCC5)n4c3c2)cc1 [Example 10, N-(3-(dimethylamino)propyl)-4-(1-(tetrahydro-2H-pyran-4-yl)-[1,2,4]triazolo[4,3-a]quinoxalin-8-yl)aniline]	
47.5		CNC1CCN(c2ccc(-c3ccc4ncc5nnc(N6C[C@@H](C)N(C)[C@@H](C)C6)n5c4n3)cc2F)CC1 [Example 117, 1-(2-fluoro-4-(9-((3S,5R)-3,4,5-trimethylpiperazin-1-yl)pyrido[3,2-e][1,2,4]triazolo[4,3-a]pyrazin-2-yl)phenyl)-N-methylpiperidin-4-amine]	
43.1		CCNC1CCN(c2ccc(-c3ccc4ncc5nnc(N6C[C@@H](C)N(C)[C@@H](C)C6)n5c4n3)cc2F)CC1 [Example 119, N-ethyl-1-(2-fluoro-4-(9-((3S,5R)-3,4,5-trimethylpiperazin-1-yl)pyrido[3,2-e][1,2,4]triazolo[4,3-a]pyrazin-2-yl)phenyl)piperidin-4-amine]	
57		C[C@@H]1CN(c2nnc3cnc4ccc(-c5ccc(OCCCN(C)C)nc5)cc4n23)C[C@H](C)N1C [Example 26, N,N-dimethyl-3-((5-(1-((3S,5R)-3,4,5-trimethylpiperazin-1-yl)-[1,2,4]triazolo[4,3-a]quinoxalin-8-yl)pyridin-2-yl)oxy)propan-1-amine]	
211	99	CNC1CCN(c2ccc(-c3ccc4ncc5nnc(C6CCOCC6)n5c4c3)cc2)CC1 [Example 42, N-methyl-1-(4-(1-(tetrahydro-2H-pyran-4-yl)-[1,2,4]triazolo[4,3-a]quinoxalin-8-yl)phenyl)piperidin-4-amine]	inhibition at 0.01 µM [2, 3]: 68%; inhibition at 0.1 µM [2, 4]: 90%
15		CCNC1CCN(c2ccc(-c3ccc4ncc5nnc(N6C[C@@H](C)N(C)[C@@H](C)C6)n5c4c3)cc2F)CC1 [Example 96, N-ethyl-1-(2-fluoro-4-(1-((3S,5R)-3,4,5-trimethylpiperazin-1-yl)-[1,2,4]triazolo[4,3-a]quinoxalin-8-yl)phenyl)piperidin-4-amine]	
16.2		CN(C)CCCOc1ccc(-c2ccc3ncc4nnc(N5CCCCC5)n4c3c2)cc1C(F)(F)F [Example 111, N,N-dimethyl-3-(4-(1-(piperidin-1-yl)-[1,2,4]triazolo[4,3-a]quinoxalin-8-yl)-2-(trifluoromethyl)phenoxy)propan-1-amine]	
262		CN(C)CCCOc1ccc(-c2ccc3ncc4nnc(C5CCOCC5)n4c3n2)cc1F [Example 139, 3-(2-fluoro-4-(9-(tetrahydro-2H-pyran-4-yl)pyrido[3,2-e][1,2,4]triazolo[4,3-a]pyrazin-2-yl)phenoxy)-N,N-dimethylpropan-1-amine]	
213		CN(C)CCCOc1ccc(-c2ccc3ncc4nnc(C5CCOCC5)n4c3n2)cc1Cl [Example 140, 3-(2-chloro-4-(9-(tetrahydro-2H-pyran-4-yl)pyrido[3,2-e][1,2,4]triazolo[4,3-a]pyrazin-2-yl)phenoxy)-N,N-dimethylpropan-1-amine]	
176		C[C@@H]1CN(c2nnc3cnc4ccc(-c5ccc(N6CCC(N(C)C)CC6)cc5)cc4n23)C[C@H](C)O1 [Example 103, 1-(4-(1-((2S,6R)-2,6-dimethylmorpholino)-[1,2,4]triazolo[4,3-a]quinoxalin-8-yl)phenyl)-N,N-dimethylpiperidin-4-amine]	
28.2		C[C@@H]1CN(c2nnc3cnc4ccc(-c5ccc(N6CCC(N(C)C)CC6)c(F)c5)cc4n23)C[C@H](C)O1 [Example 104, 1-(4-(1-((2S,6R)-2,6-dimethylmorpholino)-[1,2,4]triazolo[4,3-a]quinoxalin-8-yl)-2-fluorophenyl)-N,N-dimethylpiperidin-4-amine]	
21.9		CN(C)C1CCN(c2ccc(-c3ccc4ncc5nnc(N6CCCCC6)n5c4c3)cc2F)CC1 [Example 112, 1-(2-fluoro-4-(1-(piperidin-1-yl)-[1,2,4]triazolo[4,3-a]quinoxalin-8-yl)phenyl)-N,N-dimethylpiperidin-4-amine]	
21.1		C[C@@H]1CN(c2nnc3cnc4ccc(-c5ccc(OCCCN(C)C)c(C(F)(F)F)c5)cc4n23)C[C@H](C)O1 [Example 102, N,N-dimethyl-3-(2-(trifluoromethyl)-4-(1-((2S,6R)-2,6-dimethylmorpholino)-[1,2,4]triazolo[4,3-a]quinoxalin-8-yl)phenoxy)propan-1-amine]	
